Test results taken from publication PMC8626775, “Anti-schistosomal activities of quinoxaline-containing compounds: From hit identification to lead optimisation” (European Journal of Medicinal Chemistry, 2021).
Like-named read-outs stand apart in the source and are kept apart here.

What was measured:
S. mansoni schistosomula = S. mansoni schistosomula high-throughput phenotype and motility screen (Roboworm), 72 h; format: cell-based, Schistosoma mansoni
Outline: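 Newly transformed schistosomula (S. mansoni PR-1, mechanically transformed cercariae), 120 per well, exposed to compounds at a single concentration or two-fold titrations for 72 h at 37 °C, 5% CO2.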

S. mansoni adult worms [1] = test: S. mansoni adult worm motility screen (WormassayGP2), 72 h; format: cell-based, Schistosoma mansoni
Outline: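 Seven-week adult S. mansoni worms, perfused from infected mice, were exposed in duplicate (1–3 pairs/well) to […] compound in 0.5% DMSO for 72 h at 37 °C, 5% CO2. Motility was scored by image-based WormassayGP2, and eggs were counted afterwards.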

S. mansoni adult worms [2] = test: In vitro laid egg (IVLE) production by S. mansoni adult worm pairs, 72 h; format: cell-based, Schistosoma mansoni
Description: For the evaluation of anti-schistosomal activity on the adult stage of the parasite, 7-wk old worms were transferred into 48 well tissue culture plates (1–3 worm pairs/well, in duplicate). […] DMSO (0.5%) and praziquantel (10 μM in 0.5% DMSO) were also included as negative and positive control treatments. Treated adult worms were incubated for 72 h in a humidified environment containing 5% CO2 at 37 °C. Parasite motility after compound treatment was assessed by a digital image processing-based system (WormassayGP2), modified after Wormassay. Following compound-parasite co-incubation, eggs were collected, fixed in formalin (10% v/v formaldehyde) and enumerated aiming to collect further information on any compound-induced effects on parasite fecundity and IVLE production.

[3] = tested on: Juvenile S. mansoni worms; test: S. mansoni juvenile worm screen (motility score, propidium iodide uptake), 72 h; format: cell-based, Schistosoma mansoni; conditions: juvenile worms, positive controls at 15 μM, Fig. S4
Source text: Mice (Mus musculus HsdOLa:TO - Tuck Ordinary; Envigo, UK) were used for the mammalian-specific propagation of the S. mansoni life cycle. Experimental animals were infected with 4000 or 180 S. mansoni cercariae/mouse and perfused three- or seven-weeks post-infection to obtain S. mansoni juvenile or adult worms, respectively. Preparation steps following perfusion have been described previously. Briefly, the parasite material was washed three times with pre-warmed adult worm media (DMEM (Gibco, Paisley, UK) supplemented with 10% (v/v) Fetal Calf Serum (FCS, Gibco, Paisley, UK), 1% (v/v) L-glutamine (Gibco, Paisley, UK) and an antibiotic mixture (150 Units/ml penicillin and 150 μg/ml streptomycin; Gibco, UK)) to remove residual host contamination and incubated in a humidified environment containing 5% CO2 at 37 °C for at least 1 h.
Juvenile worms were distributed in a 96-well tissue culture plate (n = 20–25 individuals/well) containing 200 μl/well. Compounds were added to each treatment well at a concentration range of 10–0.156 μM. Negative (1.25% DMSO) and positive (15 μM PZQ and 15 μM AUR in 1.25% DMSO) controls were also included in each drug screen. Treated juvenile worms were incubated for 72 h in a humidified environment containing 5% CO2 at 37 °C. Compound-induced phenotype and motility effects were quantified using an adapted version of the WHO-TDR scoring system (in summary: 0 = dead, 1 = movement of the suckers only and slight contraction of the body, 2 = movement at the anterior and posterior regions only, 3 = full body movement but sluggish and 4 = normal movement). Additionally, differential uptake of propidium iodide (PI, P1304MP, Sigma-Aldrich, UK) was used to quantify worm viability as previously described. In brief, after 15 min incubation with 2 μg/ml PI, the parasite cultures were imaged under both bright-field and fluorescent settings (PI detection, 562 and 624 excitation and emission wavelengths, respectively) using an ImageXpressXL high content imager (Molecular Devices, UK). Enumeration of PI positive and negative juvenile worms was manually performed across all parasites within the well and the percentage of PI positive parasite was calculated per well.

HepG2 cells = test: HepG2 MTT cytotoxicity assay; conditions: for CC50: Table 2, MTT
Description: (§1) Initially the cells were handled under sterile conditions and grown at 37 °C in a humidified atmosphere containing 5% CO2. Cytotoxicity was evaluated by way of a 3-(4, 5- dimethylthiazol-2-yl)-2,5-diphenyl tetrazolium bromide (MTT) assay as previously described. The cells were counted in a dual chamber counting slide using the BIORAD TC-10 Automated cell counter, seeded in a 96-well plate (Fisher Scientific, Loughborough, UK) at a density of 2 × 10^4 cells/well and incubated in an atmosphere of 5% CO2 at 37 °C. […] The absorbance readings (at 570 nm) of the soluble formazan crystals were recorded using PolarStar Omega plate reader (BMG-Labtech). […] The latter was used to calculate the selectivity index (SI) of the compounds presented herein.

[4] = HepG2 MTT cytotoxicity assay; conditions: human, HepG2 cells
Description: as §1

S. mansoni [5] = tested on: S. mansoni; set-up: method as in PMID 24416463; conditions: cited from earlier work
S. mansoni [6] = tested on: S. mansoni; set-up: method as in PMID 24416463; conditions: cited from earlier work; remark: listed apart in the source
[7] = Schistosoma mansoni, 72 h, Table 1, 72 h, two dose response titrations (0.313–10 μM), 95% CI in brackets, read-out: Activity on schistosomula (EC50, μM - 72 h) Motility
[8] = Schistosoma mansoni, 72 h, Table 1, 72 h, two dose response titrations (0.313–10 μM), 95% CI in brackets, read-out: Activity on schistosomula (EC50, μM - 72 h) Phenotype
[9] = Schistosoma mansoni, 72 h, Table 1, mean of phenotype and motility EC50, 72 h, read-out: Activity on schistosomula (EC50, μM - 72 h) Average
[10] = Table 2, average of phenotype and motility EC50, 72 h, read-out: Activity on schistosomula (EC50, μM - 72 h) Average
[11] = Table 2, motility, 72 h, three replicate titrations (0.313–10 μM), read-out: Activity on schistosomula (EC50, μM - 72 h) M
[12] = Table 2, phenotype, 72 h, three replicate titrations (0.313–10 μM), read-out: Activity on schistosomula (EC50, μM - 72 h) P
[13] = Schistosoma mansoni, 72 h, Table 2, average of phenotype and motility EC50, 72 h, read-out: Activity on schistosomula (EC50, μM - 72 h) Average
[14] = Schistosoma mansoni, 72 h, Table 2, motility, 72 h, three replicate titrations (0.313–10 μM), read-out: Activity on schistosomula (EC50, μM - 72 h) M
[15] = Schistosoma mansoni, 72 h, Table 2, phenotype, 72 h, three replicate titrations (0.313–10 μM), read-out: Activity on schistosomula (EC50, μM - 72 h) P
[16] = Schistosoma mansoni, Table 2, 72 h, titrations 0.0095–5 μM, WormassayGP2, read-out: Activity on adult worms (EC50, μM - 72 h) Motility

With `c1ccc(/N=c2\sc3ccccc3s\c2=N\c2ccccc2)cc1` [Compound 1] the “Activity on schistosomula in the primary screen at 10 μM” value (S. mansoni schistosomula; 72 h) was “hit”, the “Activity on schistosomula in the primary screen at 50 μM” value (S. mansoni schistosomula; 50 μM, 72 h) was “hit” and the EC50 (S. mansoni schistosomula; [7]) was 4.47 µM. For the same compound, the EC50 (S. mansoni schistosomula; [8]) was 4.72 µM, the EC50 (S. mansoni schistosomula; [9]) was 4.59 µM and the EC50 (S. mansoni schistosomula; Schistosoma mansoni, Fig. S3, average schistosomula EC50, read-out: EC50 (Fig. S3, anti-schistosomula activity)) was 4.41 µM. The “Concentration down to which activity on schistosomula was retained” value (S. mansoni schistosomula; dose-response titration, 72 h) was 5 µM, the “Adult worm motility at 6.25 μM” value (S. mansoni adult worms [1]; 6.25 μM, 72 h) was “normal motility” and the “Effect on adult male and female worm pairs at 50 and 25 μM” value (S. mansoni adult worms [1]; 50 and 25 μM, 72 h) was “lethal effect”. The “Concentration up until which production of in vitro laid eggs (IVLEs) was significantly inhibited” value (S. mansoni adult worms [2]; titration 50–6.25 μM) was 12.5 µM.
With `CC(=O)OC[C@H]1O[C@@H]([S-])[C@H](OC(C)=O)[C@@H](OC(C)=O)[C@@H]1OC(C)=O.CCP(CC)CC.[Au+]` [AUR, Auranofin, reference compound] the EC50 (S. mansoni schistosomula; Table 1, 72 h, two dose response titrations (0.313–10 μM), 95% CI in brackets, read-out: Activity on schistosomula (EC50, μM - 72 h) Motility) was 0.45 µM, the EC50 (S. mansoni schistosomula; Table 1, mean of phenotype and motility EC50, 72 h, read-out: Activity on schistosomula (EC50, μM - 72 h) Average) was 0.41 µM and the EC50 (S. mansoni schistosomula; [10]) was 0.41 µM. The EC50 (S. mansoni schistosomula; [11]) was 0.45 µM, the EC50 (S. mansoni schistosomula; [12]) was 0.37 µM and the PI pos [3] was 0%. The CC50 (HepG2 cells; read-out: HepG2 cells (CC50, μM) 24 h, 24 h co-incubation) was 5.07 µM and the CC50 (HepG2 cells; read-out: HepG2 cells (CC50, μM) 72 h, 72 h co-incubation) was 2.94 µM.
For `O=[N+]([O-])c1ccc2nc(Nc3ccccc3)c(Nc3ccccc3)nc2c1` [Compound 19], the “Activity on schistosomula in the primary screen at 10 μM” value (S. mansoni schistosomula; 72 h) was “retained activity”, the EC50 (S. mansoni schistosomula; [7]) was 1.35 µM and the EC50 (S. mansoni schistosomula; [8]) was 1.89 µM. The EC50 (S. mansoni schistosomula; [9]) was 1.62 µM, the EC50 (S. mansoni schistosomula; Schistosoma mansoni, Table 3, read-out: Anti-schistosomal activity EC50 (μM) Schistosomula Motility) was 1.35 µM and the EC50 (S. mansoni schistosomula; Schistosoma mansoni, Table 3, read-out: Anti-schistosomal activity EC50 (μM) Schistosomula Phenotype) was 1.89 µM. For the same compound, the “Effect on adult worm motility at 3.15 μM” value (S. mansoni adult worms [1]; 3.15 μM, lowest concentration tested) was “complete cessation of worm mobility”, the “Effect on adult worm motility at 12.5 and 6.25 μM” value (S. mansoni adult worms [1]; 12.5 and 6.25 μM) was “particularly active” and the CC50 at 24 h [4] was 12600 nM.
With `O=[N+]([O-])c1ccc2nc(-c3ccc(F)cc3)c(-c3ccc(F)cc3)nc2c1` [Compound 21] the EC50 (S. mansoni schistosomula; [7]) was over 50 µM, the EC50 (S. mansoni schistosomula; [8]) was over 50 µM and the “Effect on phenotype and motility of S. mansoni schistosomula” value (S. mansoni schistosomula; primary tested concentrations 10 and 50 μM, 72 h) was “did not have any effect”. For the same compound, the CC50 at 24 h [4] was 6000 to 20000 nM.
With `O=[N+]([O-])c1ccc2nc(Nc3cc(F)cc(C(F)(F)F)c3)c(Nc3cc(F)cc(C(F)(F)F)c3)nc2c1` [Compound 34, N2, N3-bis(3-fluoro-5-(trifluoromethyl)phenyl)-6-nitroquinoxaline-2,3-diamine] the EC50 (S. mansoni schistosomula; [13]) was 0.4 µM, the EC50 (S. mansoni schistosomula; [14]) was 0.43 µM and the EC50 (S. mansoni schistosomula; [15]) was 0.37 µM. It also gave an EC50 (S. mansoni schistosomula; Schistosoma mansoni, Table 4, Series A, read-out: Anti-schistosomal activity EC50 Schistosomula (μM) Motility) of 0.43 µM, an EC50 (S. mansoni schistosomula; Schistosoma mansoni, Table 4, Series A, read-out: Anti-schistosomal activity EC50 Schistosomula (μM) Phenotype) of 0.37 µM and an EC50 (S. mansoni adult worms [1]; Schistosoma mansoni, Table 4, Series A, read-out: Anti-schistosomal activity EC50 Adult (nM) Motility) of 6.47 nM. The EC50 (S. mansoni adult worms [1]; [16]) was 6.47 nM and the “Effect on IVLE production compared with PZQ” value (S. mansoni adult worms [2]; 0.0024–10 μM) was “more potent than PZQ”.
With “N2, N3-bis(4-bromophenyl)quinoxaline-2,3-diamine [Compound 38, reference compound]” the EC50 (S. mansoni schistosomula; 72 h, read-out: EC50 on schistosomula (bounds and ranges given)) was over 2 µM, the EC50 (S. mansoni schistosomula; [10]) was 2.44 µM and the EC50 (S. mansoni schistosomula; [11]) was 1.21 µM. The EC50 (S. mansoni schistosomula; [12]) was 3.67 µM, the EC50 (S. mansoni adult worms [1]; Table 2, 72 h, titrations 0.0095–5 μM, WormassayGP2, read-out: Activity on adult worms (EC50, μM - 72 h) Motility) was 162 nM and the Worm burden reduction (S. mansoni [5]; four per oral doses of 100 mg/kg, delivered every 4 h) was 53.4%. The Worm burden reduction (S. mansoni [5]; single per oral dose of 400 mg/kg) was 40.8% and the “In vitro activity on S. mansoni” value (S. mansoni [6]) was “sub micromolar range”.
With `O=C(C1CCCCC1)N1CC(=O)N2CCc3ccccc3C2C1` (stereo not drawn) [PZQ, praziquantel, reference compound] the EC50 (S. mansoni schistosomula; [7]) was 0.88 µM, the EC50 (S. mansoni schistosomula; [8]) was 1.14 µM and the EC50 (S. mansoni schistosomula; [9]) was 1.01 µM. The EC50 (S. mansoni schistosomula; [13]) was 1.01 µM, the EC50 (S. mansoni schistosomula; [14]) was 0.88 µM and the EC50 (S. mansoni schistosomula; [15]) was 1.14 µM. The EC50 (S. mansoni adult worms [1]; [16]) was 107 nM, the PI pos [3] was 100% and the “Selectivity Index (SI) Adult worms” value (HepG2 cells; HepG2 CC50 versus adult worm EC50) was 945.31. For the same compound, the “Selectivity Index (SI) Somula” value (HepG2 cells; HepG2 CC50 versus schistosomula EC50) was 100.05.
